Experimental findings from US20260242438A1 (INSTITUTE OF MATERIA MEDICA, CHINESE ACADEMY OF MEDICAL …, priority 2022, published 2026) are described below.

SMILES strings stand for the structures. Where a SMILES comes first, the peptide text is derived from it. Bridges are numbered along the chain shown (N, C = ends).

For this assay, the target named is chymotrypsin (Bos taurus, UniProt P00766). The assay is described as follows: Determination of enzyme inhibitory activity against chymotrypsin (substrate AAPFpNA, OD 405 nm). The assay is classed as biochemical. The following applies: for IC50: chymotrypsin 30 nM, AAPFpNA 0.5 mM, pH 7.8, 37° C.; for remaining activity at 0.0001 µM: peptide 0.0001 μM; for remaining activity at 0.001 µM: peptide 0.001 μM; for remaining activity at 0.01 µM: peptide 0.01 μM; for remaining activity at 0.15 µM: peptide 0.15 μM; for remaining activity at 0.3 µM: peptide 0.3 μM; for remaining activity at 1 µM: peptide 1 μM; for remaining activity at 10 µM: peptide 10 μM; for remaining activity at 100 µM: peptide 100 μM; for remaining activity at 0.1 µM: peptide 0.1 μM; for remaining activity at 0.2 µM: peptide 0.2 μM; for remaining activity at 0.4 µM: peptide 0.4 μM; for remaining activity at 5 µM: peptide 5 μM; for remaining activity at 0.5 µM: peptide 0.5 μM; for remaining activity at 1000 µM: peptide 1000 μM. Here is the method: The substrates N-succinyl-Ala-Ala-Pro-Phe-p-nitroaniline (AAPFpNA) is used in competitive binding reaction to determine the inhibitory activities against α -chymotrypsin. Experiments for a-chymotrypsin was measured in 20 mM CaCl2, 50 mM Tris-HCl buffer (pH 7.8). The concentration of the peptide was measured using optical density (OD) at 280 nm. The Michaelis constant (Km) of the enzyme hydrolysis substrate is calculated from the initial rate of substrate hydrolysis at 405 nm. The absorbance value of the substrate was measured at 405 nm after complete hydrolysis. All data were processed using nonlinear regression.
(1) Added a total 190 μL of reaction buffer (20 mM CaCl2, 50 mM Tris-HCl (pH 7.8)), different concentrations of anti-chymorypsin peptides (CHs) into the pre-cold 96 well plate, followed by preheating at 37° C. for 5 min and centrifugated at 500 rpm for 1 min and allowed to stand for 4 minutes. Then added 8 μL of 750 nM chymotrypsin and incubated at 37° C. for 10 min, and centrifugated at 500 rpm for 1 min and allowed to stand for 9 minutes. Finally, added 2 μL of 50 mM AAPFpNA, and mixed by centrifugation at 500 rpm for 1 min. The plate was incubated at 37° C. for 90 min, and the absorbance value at 405 nm was measured. Three repetitions were made, and only reaction buffer and substrate were added in the blank control as the minimum absorption value (Min OD 405 nm); Only reaction buffer, enzyme and substrate were added in the negative control as the maximum absorption value (Max OD 405 nm).
(2) In the 200 μL of reaction system, the final concentrations of chymotrypsin and AAPFpNA were 30 nM and 0.5 mM, respectively.
Plotted the residual activity of enzyme with […] to obtain the half inhibitory concentration (IC50) of anti-chymorypsin peptides (CHs). Then, substituted it into the formula […]/(1+S/Km) (S, IC50, and Km were substrate concentration, half inhibitory concentration, and Michaelis constant, respectively) to obtain the inhibition constant Ki of anti-chymorypsin peptides (CHs).

Where [1] appears, read: read-out: Residual activity of chymotrypsin.

Consider `CC[C@H](C)[C@@H]1NC(=O)[C@H](CO)NC(=O)[C@H](Cc2ccccc2)NC(=O)[C@H]([C@@H](C)O)NC(=O)[C@@H](NC(=O)[C@@H](N)Cc2ccccc2)CSSC[C@@H](C(=O)N[C@@H](Cc2ccc(O)cc2)C(=O)NCC(=O)O)NC(=O)[C@H](CCC(N)=O)NC(=O)[C@@H]2CCCN2C(=O)[C@@H]2CCCN2C1=O` [CH5] (H-FCTFSIPPQCYG-OH; disulfide 2-10; C-terminus assumed), for which the Ki was determined as 0.08 µM and the IC50 was 0.19 µM. For the same compound, under setting [1], the remaining activity at 0.0001 µM turned out to be 96.7 ± 9.3%, the remaining activity at 0.001 µM is 113 ± 2.4%, the remaining activity at 0.01 µM is 102 ± 3.7% and the remaining activity at 0.15 µM was found to be 58.3 ± 2.3%. Under setting [1], the remaining activity at 0.3 µM came out at 41.9 ± 5.7%, the remaining activity at 1 µM came to 11.3 ± 1.5%, the remaining activity at 10 µM amounted to 0.3% and the remaining activity at 100 µM was 0.3 ± 0.2%. Moreover, the remaining activity at 0.6 µM (peptide 0.6 μM, read-out: Residual activity of chymotrypsin) was 19 ± 0.8%.

The compound `CC[C@H](C)[C@@H]1NC(=O)[C@H](CO)NC(=O)[C@H](Cc2ccc(O)cc2)NC(=O)[C@H]([C@@H](C)O)NC(=O)[C@@H](NC(=O)[C@@H](N)Cc2ccccc2)CSSC[C@@H](C(=O)N[C@@H](Cc2ccc(O)cc2)C(=O)NCC(=O)O)NC(=O)[C@H](CCC(N)=O)NC(=O)[C@@H]2CCCN2C(=O)[C@@H]2CCCN2C1=O` [CH10] (H-FCTYSIPPQCYG-OH; disulfide 2-10; C-terminus assumed) registered a Ki of 0.03 µM and an IC50 of 0.06 µM. Also, under setting [1], the remaining activity at 0.0001 µM came out at 101%, the remaining activity at 0.01 µM is 95.1 ± 1.2%, the remaining activity at 0.1 µM amounted to 35.4 ± 7.2% and the remaining activity at 0.2 µM came out at 24.9 ± 3.5%. For the same compound, under setting [1], the remaining activity at 0.4 µM was 18 ± 4.9%, the remaining activity at 1 µM is 3.8 ± 0.4%, the remaining activity at 10 µM is 0.1 ± 0.1% and the remaining activity at 100 µM is -0.1%.

In the case of `CC[C@H](C)[C@@H]1NC(=O)[C@H](CO)NC(=O)[C@H](Cc2ccccc2)NC(=O)[C@H]([C@@H](C)O)NC(=O)[C@@H](NC(=O)[C@@H](N)CO)CSSC[C@@H](C(=O)N[C@@H](Cc2ccc(O)cc2)C(=O)NCC(=O)O)NC(=O)[C@H](CCC(N)=O)NC(=O)[C@@H]2CCCN2C(=O)[C@@H]2CCCN2C1=O` [CH11] (H-SCTFSIPPQCYG-OH; disulfide 2-10; C-terminus assumed), the Ki stood at 0.15 µM and half-maximal inhibition (IC50) was put at 0.35 µM. Under setting [1], the remaining activity at 0.001 µM was determined as 98.5 ± 3.1%, the remaining activity at 0.01 µM worked out at 104 ± 1.8%, the remaining activity at 0.1 µM was 95.3 ± 3% and the remaining activity at 0.15 µM was 82.3 ± 3.3%. Under setting [1], the remaining activity at 1 µM worked out at 17.6 ± 0.8%, the remaining activity at 5 µM worked out at 12.5 ± 0.7%, the remaining activity at 10 µM is 6.5 ± 0.3% and the remaining activity at 100 µM is 1.1 ± 0.2%. For the same compound, the remaining activity at 300 µM (peptide 300 μM, read-out: Residual activity of chymotrypsin) was 0.2 ± 0.6%. For the same compound, the “inhibitory activity reduced (fold)” value (relative to CH10) is on record as ~7 times.

On to `CC[C@H](C)[C@@H]1NC(=O)[C@H](CO)NC(=O)[C@H](Cc2ccc(O)cc2)NC(=O)[C@H]([C@@H](C)O)NC(=O)[C@@H](NC(=O)[C@H](C)N)CSSC[C@@H](C(=O)N[C@@H](Cc2ccccc2)C(=O)O)NC(=O)[C@H](CCCCN)NC(=O)[C@H](C)NC(=O)[C@@H]2CCCN2C1=O` [CH18] (H-ACTYSIPAKCF-OH; disulfide 2-10; C-terminus assumed), for which the affinity, expressed as Ki, was 0.2 µM and the midpoint of inhibition, the IC50, lay at 0.47 µM. Also, under setting [1], the remaining activity at 0.001 µM was 103.6 ± 0.2%, the remaining activity at 0.01 µM was found to be 102 ± 3.7%, the remaining activity at 0.1 µM was 102 ± 2.4% and the remaining activity at 0.2 µM was 90.3 ± 4.1%. For the same compound, under setting [1], the remaining activity at 0.5 µM was 49.4 ± 3.7%, the remaining activity at 10 µM is 3.4 ± 0.5%, the remaining activity at 100 µM was 0.3 ± 0.1% and the remaining activity at 1000 µM worked out at 0.1 ± 0.1%. For the same compound, the remaining activity at 2.5 µM (peptide 2.5 μM, read-out: Residual activity of chymotrypsin) was determined as 3.7 ± 0.5%.

Take `CC[C@H](C)[C@@H]1NC(=O)[C@@H]2CCCN2C(=O)[C@@H]2CCCN2C(=O)[C@H]([C@@H](C)CC)NC(=O)[C@H](CO)NC(=O)[C@H](Cc2ccccc2)NC(=O)[C@H]([C@@H](C)O)NC(=O)[C@@H](NC(=O)[C@@H](NC(=O)CN)[C@@H](C)O)CSSC[C@@H](C(=O)N[C@@H](CC(N)=O)C(=O)N2CCC[C@H]2C(=O)N[C@@H](CC(N)=O)C(=O)O)NC1=O` [CH25] (H-GTCTFSIPPICNPN-OH; disulfide 3-11; C-terminus assumed): under setting [1], the remaining activity at 0.0001 µM worked out at 99.7 ± 1%, the remaining activity at 0.001 µM is 100 ± 1.9%, the remaining activity at 0.01 µM was determined as 96.9 ± 1.4% and the remaining activity at 0.2 µM is 63.1 ± 4.1%. Moreover, under setting [1], the remaining activity at 0.3 µM is 44.6 ± 4.9%, the remaining activity at 1 µM came to 15.4 ± 1.2%, the remaining activity at 10 µM worked out at 1.5 ± 0.3% and the remaining activity at 100 µM was 0.2 ± 0.2%. The remaining activity at 1000 µM under setting [1] came out at 0.2 ± 0.1%.

`CC[C@H](C)[C@@H]1NC(=O)[C@@H]2CCCN2C(=O)[C@@H]2CCCN2C(=O)[C@H]([C@@H](C)CC)NC(=O)[C@H](CO)NC(=O)[C@H](Cc2ccccc2)NC(=O)[C@H]([C@@H](C)O)NC(=O)[C@@H](NC(=O)[C@@H](NC(=O)CN)[C@@H](C)O)CSSC[C@@H](C(=O)N[C@@H](CC(N)=O)C(=O)O)NC1=O` [CH26] (H-GTCTFSIPPICN-OH; disulfide 3-11; C-terminus assumed) yielded a Ki of 0.23 µM and an IC50 of 0.54 µM. Under setting [1], the remaining activity at 0.001 µM was found to be 101 ± 1.6%, the remaining activity at 0.1 µM was 95.1 ± 2.1%, the remaining activity at 0.2 µM came to 83.1 ± 1.1% and the remaining activity at 0.4 µM came to 63.2 ± 4.5%. Besides, under setting [1], the remaining activity at 1 µM worked out at 27.8 ± 2.5%, the remaining activity at 5 µM came to 7 ± 0.5%, the remaining activity at 10 µM was 2.2 ± 0.2% and the remaining activity at 100 µM was determined as 0.3 ± 0.1%. Moreover, the remaining activity at 1000 µM under setting [1] is 0.1%.

As for `CC[C@H](C)[C@@H]1NC(=O)[C@H](CO)NC(=O)[C@H](Cc2ccc(O)cc2)NC(=O)[C@H]([C@@H](C)O)NC(=O)[C@@H](NC(=O)[C@@H](N)Cc2ccccc2)CSSC[C@@H](C(=O)N[C@@H](Cc2ccc(O)cc2)C(=O)O)NC(=O)[C@H](CCC(N)=O)NC(=O)[C@@H]2CCCN2C(=O)[C@@H]2CCCN2C1=O` [CH33] (H-FCTYSIPPQCY-OH; disulfide 2-10; C-terminus assumed), the Ki stood at 0.19 µM and the IC50 was 0.44 µM. For the same compound, under setting [1], the remaining activity at 0.001 µM came to 99.5 ± 1.4%, the remaining activity at 0.01 µM is 92.1 ± 2.1%, the remaining activity at 0.1 µM was found to be 93.6 ± 1.6% and the remaining activity at 0.5 µM is 42.7 ± 3.1%. In addition, under setting [1], the remaining activity at 1 µM was determined as 19.8 ± 1%, the remaining activity at 10 µM was 2 ± 0.2%, the remaining activity at 100 µM stood at 0.1% and the remaining activity at 1000 µM is 0.1%. In addition, where the note is “peptide 0.75 μM, read-out: Residual activity of chymotrypsin”, the remaining activity at 0.75 µM amounted to 24.6 ± 2%.

In general, Ki refers to a dissociation constant, usually derived from enzyme kinetics or from competition with a known ligand. As a reminder, the IC50 is the point on the concentration scale where inhibition reaches its midpoint. A low value points to inhibition by little substance.
